We go through 11 compounds from US5348965A, “N-substituted azaheterocyclic carboxylic acids” (Novo Nordisk A/S, priority 1991, dated 1994).

SMILES strings stand for the structures. pIC50: −log10 of the molar value. Structures can show the parent of a compound that is named as a salt.

For the first test, the system named is [^3 H]-GABA uptake. The experiment in a line: in vitro inhibition of [^3 H]-GABA uptake (method of Fjalland). It is filed as biochemical. As to conditions: Male wistar rat cortical tissue homogenate; tris HCl buffer pH 7.5; 60 minutes at 30° C. The method, then: Values for in vitro inhibition of [^3 H]-GABA uptake for the invention compounds were assessed essentially by the method of Fjalland (Acta Pharmacol. Toxicol. 1978, 42, 73-76). Male wistar rat cortical tissue was gently homogenized by hand using a glass/PTFE homogenizer in 10 volumes of 0.32 M sucrose. Incubation was performed in a 40 mM tris HCl buffer (pH 7.5 at 30° C.) containing […], 4 mM MgSO4, […] and 10 mM glucose, for 60 minutes at 30° C. Values for inhibition of GABA uptake for some representative compounds are recorded in Table I.
As usually defined, the pIC50 is the IC50 on a negative log10 scale, so that one unit is a factor of ten. Low values mean a high IC50, high ones a low IC50. With `O=C(O)[C@@H]1CCCN(CCOCCN2c3ccccc3Sc3ccccc32)C1` [Example 2a, (R)-N-(2-(2-(10H-Phenothiazin-10-yl)ethoxy)ethyl)-3-piperidinecarboxylic acid hydrochloride], the pIC50 is 6.51.
On the same count and under the same terms, for `O=C(O)[C@@H]1CCCN(CCON=C2c3ccccc3CCc3ccccc32)C1` [Example 7, (R)-N-(2-(((10,11-Dihydro-5H-dibenzo[a,d]cyclohepten-5-ylidene)amino)oxy)ethyl)-3-piperidinecarboxylic acid hydrochloride] the value was 5.95.
The same measure, in the same setting: for `O=C(O)[C@@H]1CCCN(CCOCCN2c3ccccc3CCc3ccccc32)C1` [Example 1, (R)-N-(2-(2-(10,11-Dihydro-5H-dibenz[b,f]azepin-5-yl)ethoxy)ethyl)-3-piperidinecarboxylic acid hydrochloride] the value was 6.65; for `O=C(O)[C@@H]1CCCN(CCCOCC=C2c3ccccc3CCc3ccccc32)C1` [Example 5, (R)-N-(3-(2-(10,11-Dihydro-5H-dibenzo[a,d]cyclohepten-5-ylidene)ethoxy)-1-propyl)-3-piperidinecarboxylic acid hydrochloride], 6.05; for `O=C(O)[C@@H]1CCCN(CCOCCN2c3ccccc3Sc3ccc(Cl)cc32)C1` [Example 2c, (R)-N-(2-(2-(2-Chloro-10H-phenothiazin-10-yl)ethoxy)ethyl)-3-piperidinecarboxylic acid hydrochloride], 6.92.
Still for that read-out and setting: for `O=C(O)[C@@H]1CCCN(CCOCC=C2c3ccccc3CCc3ccccc32)C1` [Example 3, (R)-N-(2-(2-(10,11-Dihydro-5H-dibenzo[a,d]cyclohepten-5-ylidene)ethoxy)ethyl)-3-piperidinecarboxylic acid hydrochloride] the value was 6.12.

Another test has as its system GABA uptake.
Test: not given
The conditions noted are these: from the synaptic cleft into presynaptic nerve terminals and glial cells; cited from earlier work.
For `O=C(O)C1CCCNC1` (centres unmarked) [3-piperidinecarboxylic acid], the “inhibition of GABA uptake” value was “potent inhibitor of GABA uptake”.

The test system of a further test is GABA uptake.
Test: not given
The conditions noted are these: oral; Yunger et al., J. Pharm. Exp. Ther. 1984, 228, 109; cited from earlier work.
Consider `O=C(O)C1CCCN(CCC=C(c2ccccc2)c2ccccc2)C1` (centres unmarked) [SK&F 89976A, N-(4,4-diphenyl-3-buten-1-yl)nipecotic acid], for which the “orally active inhibition of GABA uptake” value is given as “orally active inhibitors of GABA uptake”.
With `O=C(O)CC1CCN(CCC=C(c2ccccc2)c2ccccc2)C1` (stereo not drawn) [SK&F 100561, N-(4,4-diphenyl-3-buten-1-yl)-homo-β-proline], the “orally active inhibition of GABA uptake” value is “orally active inhibitors of GABA uptake”.
As to `O=C(O)C1CCCN(CCC=C(c2ccccc2)c2cccs2)C1` (centres unmarked) [SK&F 100604J, N-(4-phenyl-4-(2-thienyl)-3-buten-1-yl)nipecotic acid], the “orally active inhibition of GABA uptake” value is recorded as “orally active inhibitors of GABA uptake”.
On to `O=C(O)C1=CCCN(CCC=C(c2ccccc2)c2ccccc2)C1` [SK&F 100330A, N-(4,4-diphenyl-3-buten-1-yl)guvacine], for which the “orally active inhibition of GABA uptake” value is “orally active inhibitors of GABA uptake”.
